In US11679108B2, “Aromatic heterocyclic compound, and pharmaceutical composition and use thereof” (GUANGZHOU HENOVCOM BIOSCIENCE CO., LTD., priority 2018, dated 2023):

biological target: T1, ATX in human plasma (Homo sapiens, UniProt Q13822); test: Analysis in vitro: detection of LPA in human plasma for screening activity (LPA 18:2 by LC/MS/MS); type: biochemical; settings: incubated 2 hours at 37° C., LPA 18:2 detected by LC/MS/MS
T1 construct: blank plasma was derived from at least 6 individual people; from tissue; host or cells: human plasma (pooled from at least 6 individuals)
Text: Analysis In Vitro: Detection of LPA in Human Plasma for Screening Activity
Principle: LPC in plasma being used as a substrate, the produced LPA 18:2 (LPA 17:0 as an internal standard) is detected by LC/MS/MS quantitative analysis. At different concentrations of the compounds to be tested, the percentage of residual activity is obtained by the ratio of the production of LPA18:2 to that in the absence of the compounds to be tested, thereby calculating IC50 values.
Experiment procedures: blank plasma was derived from at least 6 individual people. The compounds to be tested were diluted from stock solution in 3-fold dilution gradient, to produce 8 concentrations of working solution (with zero) in series. 10 μL of the melting blank plasma samples were taken and iced methanol solution containing internal standard (LPA 17:0) was added to it, so that the mixture directedly performed protein precipitation, which served as a system control sample. 2 μL of the working solution in different concentration was taken and 198 μL of blank human plasma was added, which was incubated with a concentration of 0 to 10 μM. The samples were placed at an incubater containing 5% CO2 at 37° C., and incubated for 2 hours. When the incubation was completed, 10 μL of plasma sample was taken and appropriate volume of iced methanol solution containing internal standard (LPA 17:0) was added into it, so that the mixture directedly performed protein precipitation. The precipitation was centrifuged to take supernatant. LPA 18:2 was detected by LC/MS/MS and IC50 values were analyzed and calculated by software, seeing Table 2.

IC50	SMILES
≥ 1000 nM	CCc1nc2sc(N3CC4CC3CO4)nn2c1N(C)c1nc(-c2ccc(F)cc2)c(C#N)s1 (centres unmarked) [Example 60, 2-{[2-(2-oxa-5-azabicyclo[2.2.1]heptan-5-yl)-6-ethylimidazo[2,1-b][1,3,4]thiadiazol-5-yl](methyl)amino}-4-(4-fluorophenyl)thiazole-5-carbonitrile]
0.01 to 100 nM	CCc1nc2sc(N3CC4(CCN(CC(=O)N5CC(C#N)C5)C4)C3)nn2c1N(C)c1nc(-c2ccc(F)cc2)c(C#N)s1 [Example 53, 2-{[6-ethyl-2-(6-(2-(3-cyanoazetidin-1-yl)-2-oxoethyl)-2,6-diazaspiro[3.4]octane-2-yl)imidazo[2,1-b][1,3,4]thiadiazol-5-yl](methyl)amino}-4-(4-fluorophenyl)thiazole-5-carbonitrile]
100 to 500 nM	CCc1nc2sc(N3CCN(CC(=O)N4CC(O)C4)C4(CC4)C3)nn2c1N(C)c1nc(-c2ccc(F)cc2)c(C#N)s1 [Example 71, 2-{[6-ethyl-2-(4-(2-(3-hydroxyazetidin-1-yl)-2-oxoethyl)-4,7-diazaspiro[2.5]octan-7-yl)imidazo[2,1-b][1,3,4]thiadiazol-5-yl](methyl)amino}-4-(4-fluorophenyl)thiazole-5-carbonitrile]
0.01 to 100 nM	CCc1nc2sc(N3CC[C@@H](NCC(=O)N4CC(O)C4)C3)nn2c1N(C)c1nc(-c2ccc(F)cc2)c(C#N)s1 [Example 80, (R)-2-{[6-ethyl-2-(3-((2-(3-hydroxyazetidin-1-yl)-2-oxoethyl)amino)pyrrolidin-1-yl)imidazo[2,1-b][1,3,4]thiadiazol-5-yl](methyl)amino}-4-(4-fluorophenyl)thiazol-5-carbonitrile]
100 to 500 nM	CCc1nc2sc(N3CCC(N(C)CC(=O)NCC(=O)O)C3)nn2c1N(C)c1nc(-c2ccc(F)cc2)c(C#N)s1 (centres unmarked) [Example 51]
0.01 to 100 nM	CCc1nc2sc(N3CCC(NC(=O)N4CC(O)C4)C3)nn2c1N(C)c1nc(-c2ccc(F)cc2)c(C#N)s1 (centres unmarked) [Example 64, N-{1-[5-((5-cyano-4-(4-fluorophenyl)thiazol-2-yl)(methyl)amino)-6-ethylimidazo[2,1-b][1,3,4]thiadiazol-2-yl]pyrrolidin-3-yl}-3-hydroxyazadetin-1-carboxamide]
0.01 to 100 nM	CCc1nc2sc(N3CCN(CC(=O)N4CC(O)C4)C(C)C3C)nn2c1N(C)c1nc(-c2ccc(F)cc2)c(C#N)s1 (centres unmarked) [Example 77, 2-{[6-ethyl-2-(4-(2-(3-hydroxyazetidin-1-yl)-2-oxoethyl)-2,3-dimethylpiperazin-1-yl)imidazo[2,1-b][1,3,4]thiadiazol-5-yl](methyl)amino}-4-(4-fluorophenyl)thiazole-5-carbonitrile]
100 to 500 nM	CCc1nc2sc(N3C[C@@H](C)N(CC(=O)N4CC(O)C4)[C@@H](C)C3)nn2c1N(C)c1nc(-c2ccc(F)cc2)c(C#N)s1 [Example 72, cis-2-{[6-ethyl-2-(4-(2-(3-hydroxyazetidin-1-yl)-2-oxoethyl)-3,5-dimethylpiperazin-1-yl)imidazo[2,1-b][1,3,4]thiadiazol-5-yl](methyl)amino}-4-(4-fluorophenyl)thiazole-5-carbonitrile]
0.01 to 100 nM	CCc1nc2sc(N3C[C@H](C)N(CC(=O)N4CC(O)C4)C[C@H]3C)nn2c1N(C)c1nc(-c2ccc(F)cc2)c(C#N)s1 (relative stereo) [Example 76, trans-2-{[6-ethyl-2-(4-(2-(3-hydroxyazetidin-1-yl)-2-oxoethyl)-2,5-dimethylpiperazin-1-yl)imidazo[2,1-b][1,3,4]thiadiazol-5-yl](methyl)amino}-4-(4-fluorophenyl)thiazole-5-carbonitrile]
100 to 500 nM	CCc1nc2sc(N3C[C@H](C)N(CC(=O)N4CC(O)C4)[C@@H](C)C3)nn2c1N(C)c1nc(-c2ccc(F)cc2)c(C#N)s1 (relative stereo) [Example 73, trans-2-{[6-ethyl-2-(4-(2-(3-hydroxyazetidin-1-yl)-2-oxoethyl)-3,5-dimethylpiperazin-1-yl)imidazo[2,1-b][1,3,4]thiadiazol-5-yl](methyl)amino}-4-(4-fluorophenyl)thiazole-5-carbonitrile]
100 to 500 nM	CCc1nc2sc(N3C[C@@H]4C[C@H]3CN4CC(=O)N3CC(C#N)C3)nn2c1N(C)c1nc(-c2ccc(F)cc2)c(C#N)s1 [Example 59, 2-{[6-ethyl-2-((1S,4S)-5-(2-(3-cyanoazetidin-1-yl)-2-oxoethyl)-2,5-diazabicyclo[2.2.1]heptan-2-yl)imidazo[2,1-b][1,3,4]thiadiazol-5-yl](methyl)amino}-4-(4-fluorophenyl)thiazole-5-carbonitrile]
100 to 500 nM	CCc1nc2sc(N3CCC4(CN(CC(=O)N5CC(O)C5)C4)C3)nn2c1N(C)c1nc(-c2ccc(F)cc2)c(C#N)s1 [Example 54, 2-{[6-ethyl-2-(2-(2-(3-hydroxyazetidin-1-yl)-2-oxoethyl)-2,6-diazaspiro[3.4]octane-6-yl)imidazo[2,1-b][1,3,4]thiadiazol-5-yl](methyl)amino}-4-(4-fluorophenyl)thiazole-5-carbonitrile]
100 to 500 nM	CCc1nc2sc(N3CCC(N(C)CC(=O)NCC(=O)OC)C3)nn2c1N(C)c1nc(-c2ccc(F)cc2)c(C#N)s1 (centres unmarked) [Example 50]
0.01 to 100 nM	CCc1nc2sc(N3CC4CN(CC(=O)N5CC(O)C5)CC4C3)nn2c1N(C)c1nc(-c2ccc(F)cc2)c(C#N)s1 (centres unmarked) [Example 56, 2-{[6-ethyl-2-(5-(2-(3-hydroxyazetidin-1-yl)-2-oxoethyl)hexahydropyrrolo[3,4-c]pyrrol-2(1H)-yl)imidazo[2,1-b][1,3,4]thiadiazol-5-yl](methyl)amino}-4-(4-fluorophenyl)thiazole-5-carbonitrile]
500 to 1000 nM	CCc1nc2sc(N3CC4(CN(C(N)=O)C4)C3)nn2c1N(C)c1nc(-c2ccc(F)cc2)c(C#N)s1 [Example 9, 6-{5-[(5-cyano-4-(4-fluorophenyl)thiazol-2-yl)(methyl)amino]-6-ethylimidazo[2,1-b][1,3,4]thiadiazol-2-yl}-2,6-diazaspiro[3.3]heptane-2-carboxamide]
100 to 500 nM	CCc1nc2sc(N3CCN(CC(=O)N4CC(O)C4)[C@H](C)C3)nn2c1N(C)c1nc(-c2ccc(F)cc2)c(C#N)s1 [Example 69, (R)-2-{[6-ethyl-2-(4-(2-(3-hydroxyazetidin-1-yl)-2-oxoethyl)-3-methylpiperazin-1-yl)imidazo[2,1-b][1,3,4]thiadiazol-5-yl](methyl)amino}-4-(4-fluorophenyl)thiazole-5-carbonitrile]
100 to 500 nM	CCc1nc2sc(N3CC4CCN(CC(=O)N5CC(O)C5)C4C3)nn2c1N(C)c1nc(-c2ccc(F)cc2)c(C#N)s1 (centres unmarked) [Example 62, 2-{[6-ethyl-2-(1-(2-(3-hydroxyazetidin-1-yl)-2-oxoethyl)hexahydropyrrolo[3,4-b]pyrrol-5(1H)-yl)imidazo[2,1-b][1,3,4]thiadiazol-5-yl](methyl)amino}-4-(4-fluorophenyl)thiazole-5-carbonitrile]
500 to 1000 nM	CCc1nc2sc(N3CCC(N(C)CC(=O)O)C3)nn2c1N(C)c1nc(-c2ccc(F)cc2)c(C#N)s1 (centres unmarked) [Example 49, 2-{[1-(5-((5-cyano-4-(4-fluorophenyl)thiazol-2-yl)(methyl)amino)-6-ethylimidazo[2,1-b][1,3,4]thiadiazol-2-yl)pyrrolidin-3-yl](methyl)amino}acetic acid]
0.01 to 100 nM	CCc1nc2sc(N3CCN(CC(=O)N4CC(O)C4)[C@@H](C)C3)nn2c1N(C)c1nc(-c2ccc(F)cc2)c(C#N)s1 [Example 68, (S)-2-{[6-ethyl-2-(4-(2-(3-hydroxyazetidin-1-yl)-2-oxoethyl)-3-methylpiperazin-1-yl)imidazo[2,1-b][1,3,4]thiadiazol-5-yl](methyl)amino}-4-(4-fluorophenyl)thiazole-5-carbonitrile]
0.01 to 100 nM	CCc1nc2sc(N3CCN(CC(=O)N4CC(O)C4)C[C@@H]3C)nn2c1N(C)c1nc(-c2ccc(F)cc2)c(C#N)s1 [Example 67, (S)-2-{[6-ethyl-2-(4-(2-(3-hydroxyazetidin-1-yl)-2-oxoethyl)-2-methylpiperazin-1-yl)imidazo[2,1-b][1,3,4]thiadiazol-5-yl](methyl)amino}-4-(4-fluorophenyl)thiazole-5-carbonitrile]
100 to 500 nM	CCc1nc2sc(N3CCC(C(=O)N4CC(O)C4)CC3)nn2c1N(C)c1nc(-c2ccc(F)cc2)c(C#N)s1 [Example 79, 2-{[6-ethyl-2-(4-(3-hydroxyazetidin-1-carbonyl)piperidin-1-yl)imidazo[2,1-b][1,3,4]thiadiazol-5-yl](methyl)amino}-4-(4-fluorophenyl)thiazole-5-carbonitrile]
500 to 1000 nM	CCc1nc2sc(N3CCN(C(N)=O)CC3)nn2c1N(C)c1nc(-c2ccc(F)cc2)c(C#N)s1 [Example 7, 4-{5-[(5-cyano-4-(4-fluorophenyl)thiazol-2-yl)(methyl)amino]-6-ethylimidazo[2,1-b][1,3,4]thiadiazol-2-yl}piperazine-1-carboxamide]

SMILES	IC50
CCc1nc2sc(N3CC4CC(C3)N4CC(=O)N3CC(O)C3)nn2c1N(C)c1nc(-c2ccc(F)cc2)c(C#N)s1 [Example 61, 2-{[6-ethyl-2-(6-(2-(3-hydroxyazetidin-1-yl)-2-oxoethyl)-3,6-diazabicyclo[3.1.1]heptan-3-yl)imidazo[2,1-b][1,3,4]thiadiazol-5-yl](methyl)amino}-4-(4-fluorophenyl)thiazole-5-carbonitrile]	100 to 500 nM
